Where two headings read alike, the source gives them in different places.
Tests used:
Format in all cases: in vivo
Phytophthora infestans = settings: for Test D disease control rating: tomato late blight; for Test D disease control rating (100 = 100% disease control, 0 = no disease control): tomato seedlings sprayed to run-off, inoculated the following day, rating relative to controls, unmarked compounds (standard test rate)
Pyricularia oryzae = settings: for Test C disease control rating: rice blast; for Test C disease control rating (100 = 100% disease control, 0 = no disease control): rice seedlings sprayed to run-off, inoculated the following day, rating relative to controls, unmarked compounds (standard test rate)
[1] = test system: Eiysiphe graminis f. sp. tritici; assay: Test A: wheat powdery mildew, preventive spray on wheat seedlings; settings: for Test A disease control rating: wheat powdery mildew; for Test A disease control rating (100 = 100% disease control, 0 = no disease control): wheat seedlings sprayed to run-off, inoculated the following day, rating relative to controls, unmarked compounds (standard test rate)
How it was run: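 Compounds (3% acetone, 250 ppm Trem 014) sprayed to run-off on wheat seedlings, inoculated next day with spore dust. Incubated 7 days at 20° C before disease rating, 0–100% control relative to untreated controls.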

Botrytis cinerea = assay: Test E: gray mold, preventive spray on cucumber seedlings; settings: for Test E disease control rating: gray mold on cucumber; for Test E disease control rating (100 = 100% disease control, 0 = no disease control): cucumber seedlings sprayed to run-off, inoculated the following day, rating relative to controls, unmarked compounds (standard test rate)
How it was run: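 Compounds in 3% acetone were suspended with 250 ppm Trem 014 surfactant and sprayed to run-off on cucumber seedlings. B. cinerea spores were inoculated next day, then 48 h saturated humidity at 20° C and 5 days at 20° C. Disease control rated 0–100% versus controls.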

Puccinia recondita = assay: Test B: wheat leaf rust, preventive spray on wheat seedlings; settings: for Test B disease control rating: wheat leaf rust; for Test B disease control rating (100 = 100% disease control, 0 = no disease control): wheat seedlings sprayed to run-off, inoculated the following day, rating relative to controls, unmarked compounds (standard test rate)
How it was run: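 Wheat seedlings were sprayed to run-off with compound (3% acetone, 250 ppm Trem 014), then inoculated with P. recondita spores the next day. They were held 24 h saturated at 20 °C, then 6 days at 20 °C. Ratings are 0–100% disease control versus controls.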

[2] = 100 = 100% disease control, 0 = no control, unmarked entries (standard test concentration)
[3] = 100 = 100% disease control, 0 = no control relative to controls, unmarked entries (standard test concentration)

SMILES	Test D disease control rating (Phytophthora infestans; [2]) [%]	Test C disease control rating (Pyricularia oryzae; [2]) [%]	Test A disease control rating [1, 3] [%]	Test E disease control rating (Botrytis cinerea; [2]) [%]	Test B disease control rating (Puccinia recondita; [2]) [%]	Test D disease control rating (100 = 100% disease control, 0 = no disease control) (Phytophthora infestans) [%]	Test C disease control rating (100 = 100% disease control, 0 = no disease control) (Pyricularia oryzae) [%]	Test A disease control rating (100 = 100% disease control, 0 = no disease control) [1] [%]	Test E disease control rating (100 = 100% disease control, 0 = no disease control) (Botrytis cinerea) [%]	Test B disease control rating (100 = 100% disease control, 0 = no disease control) (Puccinia recondita) [%]	also measured
C[C@H](COc1ccc(Cl)cc1)NC(=O)C(C#N)C(C)(C)C (single isomer, unassigned) [7d]	0	99	62	6	68						
CCC1(C(=O)NC(C)COc2cc(Br)ccc2C#N)C(C)C1(Cl)Cl (centres unmarked) [compound 246]						0	97	53	0	0	
C[C@H](COc1ccccc1C#N)NC(=O)C(C#N)C(C)(C)C (single isomer, unassigned) [13b]	4	86	0	83	0						
CC(C)(C)C(C#N)C(=O)NCCCc1ccccc1 (racemic) [compound 54]	0	32	34	16	11						
CC(C(C#N)C(=O)NCC=Cc1cccc(Br)c1)C(C)(C)C (mixture of isomers) [compound 76]											Test D disease control rating (Phytophthora infestans; tested at 40 ppm): 19%; Test C disease control rating (Pyricularia oryzae; tested at 40 ppm): 0%; Test A disease control rating ([1]; tested at 40 ppm): 0%; Test E disease control rating (Botrytis cinerea; tested at 40 ppm): 0%; Test B disease control rating (Puccinia recondita; tested at 40 ppm): 0%
CCC1(C(=O)NCC=Cc2ccccc2F)C(C)C1(Cl)Cl (centres unmarked) [compound 157]											Test D disease control rating (Phytophthora infestans; tested at 40 ppm): 0%; Test C disease control rating (Pyricularia oryzae; tested at 40 ppm): 97%; Test A disease control rating ([1]; tested at 40 ppm): 0%; Test E disease control rating (Botrytis cinerea; tested at 40 ppm): 0%; Test B disease control rating (Puccinia recondita; tested at 40 ppm): 0%
CCC1(C(=O)NC(C)COc2ccc(C(C)(C)C)cc2)C(C)C1(Cl)Cl (centres unmarked) [compound 241]						74	74	38	0	0	
CCC1(C(=O)NC(C)COc2c(Cl)cc(Cl)cc2Cl)C(C)C1(Cl)Cl (centres unmarked) [compound 118]											Test D disease control rating (Phytophthora infestans; tested at 40 ppm): 0%; Test C disease control rating (Pyricularia oryzae; tested at 40 ppm): 0%; Test A disease control rating ([1]; tested at 40 ppm): 83%; Test E disease control rating (Botrytis cinerea; tested at 40 ppm): 0%; Test B disease control rating (Puccinia recondita; tested at 40 ppm): 0%
CC(COc1ccccc1)NC(=O)C(C#N)C(C)(C)C (mixture of isomers) [1a]	0	53	60	0	0						
Cc1ccc(OC[C@@H](C)NC(=O)C(C#N)C(C)(C)C)c(Cl)c1 (single isomer, unassigned) [14a]	45	94	0	58	0						
CC(COc1cccc(C(F)(F)F)c1C#N)NC(=O)C(C#N)C(C)(C)C (mixture of isomers) [compound 47]	52	53	0	0	0						
CCC1(C(=O)NC(C)COc2ccccc2C(C)C)C(C)C1(Cl)Cl (centres unmarked) [compound 99]											Test D disease control rating (Phytophthora infestans; tested at 40 ppm): 68%; Test C disease control rating (Pyricularia oryzae; tested at 40 ppm): 0%; Test A disease control rating ([1]; tested at 40 ppm): 83%; Test E disease control rating (Botrytis cinerea; tested at 40 ppm): 0%; Test B disease control rating (Puccinia recondita; tested at 40 ppm): 0%
CC(COc1ccccc1C(F)(F)F)NC(=O)C1(C)CC1(Cl)Cl (mixture of isomers) [compound 312]						82	0	0	0	0	
CCc1ccccc1OCC(C)NC(=O)C(C#N)C(C)(C)C (mixture of isomers) [20b]	0	100	0	0	0						
CCC1(C(=O)NC(C)COc2ccccc2)C(C)C1(Cl)Cl (mixture of isomers) [77b]											Test D disease control rating (Phytophthora infestans; tested at 40 ppm): 0%; Test C disease control rating (Pyricularia oryzae; tested at 40 ppm): 74%; Test A disease control rating ([1]; tested at 40 ppm): 33%; Test E disease control rating (Botrytis cinerea; tested at 40 ppm): 0%; Test B disease control rating (Puccinia recondita; tested at 40 ppm): 0%
CC(C=Cc1ccc(F)cc1F)NC(=O)C(C#N)C(C)(C)C (mixture of isomers) [compound 309]						23	91	86	0	0	
CC(CCn1cc(Cl)cc1C#N)NC(=O)C(C#N)C(C)C(C)(C)C (mixture of isomers) [compound 74]	23	53	0	0	86						
CCC1(C(=O)NC(C)COc2c(F)cccc2C#N)C(C)C1(Cl)Cl (mixture of isomers) [compound 316]						0	53	0	0	0	
CC(C)(C)C(C#N)C(=O)NC/C=C/c1ccc(F)cc1F (racemic) [compound 273]						23	53	86	0	0	
CCC1(C(=O)NC(C)C=Cc2ccc(Cl)cc2Cl)C(C)C1(Cl)Cl (centres unmarked) [compound 266]						74	91	63	0	0	
CCC1(C(=O)NC(C)COc2cc(F)c(F)cc2C#N)C(C)C1(Cl)Cl (mixture of isomers) [compound 257]						0	0	0	0	0	
CC(C)(C)C(C#N)C(=O)NC/C=C/c1cccc(Br)c1 (racemic) [compound 272]						63	53	76	0	0	
